Experimental findings from patent US20260098017A1, “NOVEL AROMATIC RING DERIVATIVE CONTAINING AMIDE SUBSTITUTION AND USE THEREOF” (TIANJIN PHARMACEUTICAL BIOTECHNOLOGY CO., LTD., priority 2022, published 2026) are described below.

Structures are written as SMILES.

For the assay, the target named is Ba/F3 cell line expressing TYK2 (Homo sapiens, UniProt P29597, cells depend on it, form not given). Briefly: In vitro cellular inhibition assay (Ba/F3 cell proliferation, CellTiter-Glo). Format: cell-based. To be noted: read-out: IC50 (the source's name). The procedure: The inhibitory effect of the compounds of formula (I) according to the present invention on the TYK2 signaling pathway in cells was assessed using the following method:
Instrumentation: SpectraMax Paradigm reader.
Method: in this experiment, a Ba/F3 cell line expressing TYK2 was employed to assess the effect of the compounds on cell proliferation inhibition by measuring their effects on cell activity in vitro.
Procedure: a CellTiter-Glo buffer was thawed and placed aside till room temperature. A CellTiter-Glo substrate was placed aside till room temperature and dissolved with the buffer to prepare a CellTiter-Glo working solution. To a 96-well flat bottom transparent drug plate, 98 μL of cell culture medium and 2 μL of gradient diluted compound solution were added. The drug plate was placed aside for 10 min, and then 50 μL of the CellTiter-Glo working solution was added. The drug plate was subsequently shaken on an orbital shaker for 2 min and placed aside at room temperature for an additional 10 min. Finally, the luminescence signal was measured on the SpectraMax Paradigm reader.
Data Analysis: the cell proliferation inhibition rate data were processed using the following formula:
Inhibition Rate (Inh %)=100−(RLUDrug−RLUMin)/(RLUMax−RLUMin)×100%.
The inhibition rates of compounds with different concentrations were calculated in EXCEL, and then GraphPad Prism software was employed to plot inhibition rate curve and calculate relevant parameters, including maximum and minimum cell inhibition rates, IC50 values.
With `[2H]C([2H])([2H])NC(=O)c1nnc(NC(=O)C2CC2)cc1Nc1cccc(C(=O)Nc2ccc(C(C)C)c(C)c2)c1OC` [Example 27], the GI50 was 5 to 10 nM. Regarding `[2H]C([2H])([2H])NC(=O)c1nnc(NC(=O)C2CC2)cc1Nc1cccc(C(=O)Nc2ccccn2)c1OC` [Example 48], the GI50 lay within 5 to 10 nM. For the molecule `[2H]C([2H])([2H])NC(=O)c1cnc(NC(=O)C2CC2)cc1Nc1cccc(C(=O)Nc2ncc(F)cn2)c1OC` [Example 93], the GI50 was in the range of 5 to 10 nM.

Take `[2H]C([2H])([2H])NC(=O)c1nnc(NC(=O)C2CC2)cc1Nc1cccc(C(=O)Nc2cccc(C)c2C)c1OC` [Example 8]: the GI50 lay within 5 to 10 nM. For `[2H]C([2H])([2H])NC(=O)c1cnc(NC(=O)C2CC2)cc1Nc1cccc(C(=O)Nc2ncn(C)n2)c1OC` [Example 88] the value was 5 to 10 nM; for `[2H]C([2H])([2H])NC(=O)c1nnc(NC(=O)C2CC2)cc1Nc1cccc(C(=O)Nc2ccc(F)c(C)c2)c1OC` [Example 32], 5 to 10 nM. In the case of `[2H]C([2H])([2H])NC(=O)c1nnc(NC(=O)C2CC2)cc1Nc1cccc(C(=O)Nc2cccc(C(C)C)c2)c1OC` [Example 16], the GI50 lay in the range of 5 to 10 nM. For `[2H]C([2H])([2H])NC(=O)c1nnc(NC(=O)C2CC2)cc1Nc1cccc(C(=O)Nc2ccccc2F)c1OC` [Example 7] the value was 5 to 10 nM.

On to `[2H]C([2H])([2H])NC(=O)c1cnc(NC(=O)C2CC2)cc1Nc1cccc(C(=O)Nc2ccc(C(F)(F)F)c(C)c2)c1OC` [Example 81], for which the GI50 is 5 to 10 nM. Under `[2H]C([2H])([2H])NC(=O)c1cnc(NC(=O)C2CC2)cc1Nc1cccc(C(=O)Nc2ccc(F)cn2)c1OC` [Example 94] stands 5 to 10 nM; under `[2H]C([2H])([2H])NC(=O)c1cnc(NC(=O)C2CC2)cc1Nc1cccc(C(=O)Nc2ccc(F)c(C)c2)c1OC` [Example 84], 5 to 10 nM. `[2H]C([2H])([2H])NC(=O)c1cnc(NC(=O)C2CC2)cc1Nc1cccc(C(=O)Nc2ccc(F)nc2)c1OC` [Example 98]: the GI50 fell in the range of 5 to 10 nM. Take `[2H]C([2H])([2H])NC(=O)c1cnc(NC(=O)C2CC2)cc1Nc1cccc(C(=O)Nc2ncccn2)c1OC` [Example 103]: the GI50 fell in the range of 5 to 10 nM. For `[2H]C([2H])([2H])NC(=O)c1nnc(NC(=O)C2CC2)cc1Nc1cccc(C(=O)Nc2ccc(C(C)C)cc2)c1OC` [Example 20] the value was 5 to 10 nM; for `[2H]C([2H])([2H])NC(=O)c1nnc(NC(=O)C2CC2)cc1Nc1cccc(C(=O)Nc2cccc(C)n2)c1OC` [Example 40], 5 to 10 nM. For `[2H]C([2H])([2H])NC(=O)c1nnc(NC(=O)C2CC2)cc1Nc1cccc(C(=O)Nc2cccnc2)c1OC` [Example 49], the GI50 was in the range of 5 to 10 nM. Under `[2H]C([2H])([2H])NC(=O)c1cnc(NC(=O)C2CC2)cc1Nc1cccc(C(=O)Nc2cn(C)cn2)c1OC` [Example 87] stands 5 to 10 nM.

Regarding `[2H]C([2H])([2H])NC(=O)c1nnc(NC(=O)C2CC2)cc1Nc1cccc(C(=O)Nc2ccc(C)cn2)c1OC` [Example 43], the GI50 is 5 to 10 nM.

As for `[2H]C([2H])([2H])NC(=O)c1cnc(NC(=O)C2CC2)cc1Nc1cccc(C(=O)Nc2cccc(C(C)C)c2)c1OC` [Example 68], the GI50 fell in the range of 5 to 10 nM.

On to `[2H]C([2H])([2H])NC(=O)c1cnc(NC(=O)C2CC2)cc1Nc1cccc(C(=O)Nc2cccc(F)c2)c1OC` [Example 58], for which the GI50 was in the range of 5 to 10 nM. As to `[2H]C([2H])([2H])NC(=O)c1nnc(NC(=O)C2CC2)cc1Nc1cccc(C(=O)Nc2ccc(C#N)cc2)c1OC` [Example 23], the GI50 lay within 5 to 10 nM.

As to `[2H]C([2H])([2H])NC(=O)c1nnc(NC(=O)C2CC2)cc1Nc1cccc(C(=O)Nc2cccc(C(C)(C)C)c2)c1OC` [Example 17], the GI50 is 5 to 10 nM. Under `[2H]C([2H])([2H])NC(=O)c1nnc(NC(=O)C2CC2)cc1Nc1cccc(C(=O)Nc2ccc(C(F)(F)F)cc2)c1OC` [Example 22] stands 5 to 10 nM; under `[2H]C([2H])([2H])NC(=O)c1cnc(NC(=O)C2CC2)cc1Nc1cccc(C(=O)Nc2ccc(C#N)cc2)c1OC` [Example 75], 5 to 10 nM.
